Results as given in ChEMBL document CHEMBL4811256, “Synthesis and evaluation of multi-target-directed ligands with BACE-1 inhibitory and Nrf2 agonist activities as potential agents against Alzheimer's disease” (Eur J Med Chem, 2021).
Calls of active or inactive are those of the source. The calls are words filed in the database; no cut-off is given here.

Experiments:
HEK293 = test: Inhibition of amyloid beta(1 to 40) secretion in human HEK293T cells transfected with human APP harboring Swedish double mutant K595N/M596L measured after 24 hrs by ELISA; format: functional, cell-based; conditions: dose 2.5-10 µM
PC-12 [1] = test: Activation of Keap1-Nrf2-ARE pathway in rat PC-12 assessed as upregulation of GCLC protein expression measured after 12 hrs by Western blot analysis; conditions: filed as activator, dose 2.5-10 µM
PC-12 [2] = test: Cytoprotective activity against H2O2- induced cell death in rat PC-12 cells assessed as increase in viable cells at 10 uM pretreated for 12 hrs followed by H2O2 challenge by MTT assay relative to control; format: functional
PC-12 [3] = test: Activation of Keap1-Nrf2-ARE pathway in rat PC-12 assessed as upregulation of TrxR1 protein expression at 10 uM measured after 6 to 24 hrs by Western blot analysis; conditions: filed as activator, time 6-24 hrs
Beta-secretase 1 = Beta-secretase 1 (Homo sapiens, UniProt P56817); test: Inhibition of BACE-1 (unknown origin) using Mca-Ser-Glu-Val-Asn-Leu-Asp-Ala-Glu-Phe-Lys-Dnp-OH as substrate preincubated for 30 mins followed by substrate addition and measured after 1 hr by FRET assay
PC-12 [4] = test: Protection against 6-OHDA-induced apoptosis in rat PC-12 cells assessed as late apoptotic cells at 2.5 uM pretreated for 12 hrs followed by 6-OHDA challenge by annexin V FITC/propidium iodide staining based flow cytometry (reference value: 17.3 %); format: functional
PC-12 [5] = test: Protection against H2O2-induced mitochondrial dysfunction in rat PC-12 cells assessed as change in mitochondrial membrane potential at 2.5 uM pretreated with compound for 12 hrs followed by H2O2 challenge by JC-1 staining based flow cytometry (reference value: 73 %); format: functional
PC-12 [6] = test: Protection against 6-OHDA-induced mitochondrial dysfunction in rat PC-12 cells assessed as change in mitochondrial membrane potential at 2.5 uM pretreated with compound for 12 hrs followed by 6-OHDA challenge by JC-1 staining based flow cytometry (reference value: 56 %); format: functional
PC-12 [7] = test: Protection against 6-OHDA-induced apoptosis in rat PC-12 cells assessed as early apoptotic cells at 10 uM pretreated for 12 hrs followed by 6-OHDA challenge by annexin V FITC/propidium iodide staining based flow cytometry (reference value: 2.4 %); format: functional
PC-12 [8] = test: Protection against 6-OHDA-induced apoptosis in rat PC-12 cells assessed as viable cells at 2.5 uM pretreated for 12 hrs followed by 6-OHDA challenge by annexin V FITC/propidium iodide staining based flow cytometry (reference value: 76.7 %); format: functional; conditions: read-out: Activity
PC-12 [9] = test: Protection against H2O2-induced apoptosis in rat PC-12 cells assessed as early apoptic cells at 5 uM pretreated for 12 hrs followed by H2O2 challenge by annexin V FITC/propidium iodide staining based flow cytometry (reference value: 2.2 %); format: functional
PC-12 [10] = test: Prevention of H2O2-induced calcium overload in rat PC-12 cells assessed as reduction in intracellular free calcium pretreated with compound for 12 hrs followed by H2O2 challenge by Fluo-3AM based fluorescence assay; format: functional, cell-based; conditions: dose 2.5-10 µM
[11] = target: T1, Nuclear factor erythroid 2-related factor 2 (Mus musculus) (UniProt Q60795); test: Activation of Nrf2 in mouse BV-2 cells assessed as decrease in LPS-induced IL-6 production pretreated with compound for 2 hrs followed by LPS stimulation and further incubated for 18 hrs […]; format: cell-based; conditions: filed as activator, dose 10.0 µM, time 20.0 hrs
T1 sequence (whole entry): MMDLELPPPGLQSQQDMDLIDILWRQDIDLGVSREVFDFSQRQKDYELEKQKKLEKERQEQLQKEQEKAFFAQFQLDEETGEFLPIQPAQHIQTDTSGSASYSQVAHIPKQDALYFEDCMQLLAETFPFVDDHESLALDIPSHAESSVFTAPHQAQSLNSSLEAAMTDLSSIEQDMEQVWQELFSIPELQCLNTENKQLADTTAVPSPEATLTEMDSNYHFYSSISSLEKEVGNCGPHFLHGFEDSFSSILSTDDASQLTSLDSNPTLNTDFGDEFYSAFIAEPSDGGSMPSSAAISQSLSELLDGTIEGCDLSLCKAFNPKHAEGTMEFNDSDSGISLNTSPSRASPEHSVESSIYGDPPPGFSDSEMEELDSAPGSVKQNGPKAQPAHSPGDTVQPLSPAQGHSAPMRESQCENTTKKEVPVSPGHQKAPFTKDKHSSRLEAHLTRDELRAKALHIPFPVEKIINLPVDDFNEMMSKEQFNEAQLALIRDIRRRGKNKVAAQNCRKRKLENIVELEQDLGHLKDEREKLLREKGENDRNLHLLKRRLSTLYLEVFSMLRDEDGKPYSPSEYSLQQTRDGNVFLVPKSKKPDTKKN

PC-12 [12] = test: Protection against 6-OHDA-induced apoptosis in rat PC-12 cells assessed as cell rescue pretreated for 12 hrs followed by 6-OHDA challenge by Hoechst 33342 staining based confocal microscopic analysis; format: functional; conditions: dose 2.5-10 µM
PC-12 [13] = test: Prevention of 6-OHDA-induced calcium overload in rat PC-12 cells assessed as reduction in intracellular free calcium pretreated with compound for 12 hrs followed by 6-OHDA challenge by Fluo-3AM based fluorescence assay; format: functional, cell-based; conditions: dose 2.5-10 µM
PC-12 [14] = test: Neuroprotective activity against H2O2-induced cell damage in rat PC-12 cells assessed as decrease in cell death at 10 uM pretreated for 12 hrs followed by H2O2 challenge by MTT assay; format: functional, cell-based
BV-2 = test: Antiinflammatory activity in mouse BV-2 cells transfected with Nrf2 siRNA assessed as inhibition of LPS-induced NO production at 10 uM pretreated with compound for 2 hrs followed by LPS stimulation and further incubated for 18 hrs; format: functional, cell-based; conditions: time 20.0 hrs
[15] = Binding affinity to N-Acetyl-L-cysteine assessed ascompound-NAC covalent adduct formation measured after 3 hrs by Q-TOF mass spectroscopy
PC-12 [16] = test: Cytoprotective activity against 6-OHDA-induced oxidative stress in rat PC-12 cells assessed as decrease in cell death at 10 uM pretreated for 12 hrs followed by 6-OHDA challenge by MTT assay; format: functional, cell-based
PC-12 [17] = test: Protection against 6-OHDA-induced apoptosis in rat PC-12 cells assessed as viable cells at 5 uM pretreated for 12 hrs followed by 6-OHDA challenge by annexin V FITC/propidium iodide staining based flow cytometry (reference value: 76.7 %); format: functional; conditions: read-out: Activity
PC-12 [18] = test: Protection against H2O2-induced apoptosis in rat PC-12 cells assessed as necrotic cells at 10 uM pretreated for 12 hrs followed by H2O2 challenge by annexin V FITC/propidium iodide staining based flow cytometry (reference value: 3.7 %); format: functional
[19] = target: T1, Nuclear factor erythroid 2-related factor 2 (Mus musculus); test: Activation of Nrf2 in mouse BV-2 cells assessed as decrease in LPS-induced NO production pretreated with compound for 2 hrs followed by LPS stimulation and further incubated for 18 hrs by Griess reagent based assay; format: cell-based; conditions: filed as activator, dose 10.0 µM, time 20.0 hrs
in vitro = conditions: PAMPA
PC-12 [20] = test: Cytotoxicity against rat PC-12 cells at 25 uM incubated for 24 hrs by MTT assay; format: cell-based; conditions: pc-12, 24 h
PC-12 [21] = test: Activation of Keap1-Nrf2-ARE pathway in rat PC-12 assessed as upregulation of NQO1 protein expression measured after 12 hrs by Western blot analysis; conditions: filed as activator, dose 2.5-10 µM

Chain of Beta-secretase 1 (P56817 whole entry): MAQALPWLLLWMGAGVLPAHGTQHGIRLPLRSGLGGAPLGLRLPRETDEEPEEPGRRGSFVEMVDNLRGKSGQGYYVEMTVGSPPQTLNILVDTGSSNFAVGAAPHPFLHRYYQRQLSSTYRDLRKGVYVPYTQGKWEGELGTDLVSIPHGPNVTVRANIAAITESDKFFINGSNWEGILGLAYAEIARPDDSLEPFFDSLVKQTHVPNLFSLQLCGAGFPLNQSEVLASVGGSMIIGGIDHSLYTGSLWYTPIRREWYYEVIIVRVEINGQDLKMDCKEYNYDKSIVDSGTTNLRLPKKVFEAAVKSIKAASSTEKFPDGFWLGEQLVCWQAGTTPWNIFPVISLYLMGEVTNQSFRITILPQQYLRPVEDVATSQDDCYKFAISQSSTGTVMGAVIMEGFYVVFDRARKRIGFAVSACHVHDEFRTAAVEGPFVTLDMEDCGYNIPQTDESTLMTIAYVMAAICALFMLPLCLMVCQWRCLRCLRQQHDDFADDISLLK

**Q.** Which inhibition (HEK293) does the source give for CN1C(N)=N[C@](C)(c2cc(-n3[se]c4cc(F)ccc4c3=O)ccc2F)CS1(=O)=O here?
**A.** Active

**Q.** What about the Activity (PC-12 [1]) of the same compound?
**A.** Active

**Q.** What about the Activity (PC-12 [2]) of the same compound?
**A.** 80%

**Q.** What about the Activity (PC-12 [3]) of the same compound?
**A.** Active

**Q.** What about the IC50 (Beta-secretase 1) of the same compound?
**A.** 1060 nM

**Q.** What about the Activity (PC-12 [4]) of the same compound?
**A.** 14.9%

**Q.** What about the Activity (PC-12 [5]) of the same compound?
**A.** 75.1%

**Q.** What about the Activity (PC-12 [6]) of the same compound?
**A.** 61.2%

**Q.** And the Activity (PC-12 [7])?
**A.** 1.4%

**Q.** What about the viability at 2.5 µM (PC-12 [8]) of the same compound?
**A.** 79.8%

**Q.** What about the Activity (PC-12 [9]) of the same compound?
**A.** 1.6%

**Q.** And the Activity (PC-12 [10])?
**A.** Dose-Dependent Effect

**Q.** And the Activity [11]?
**A.** Active

**Q.** And the Activity (PC-12 [12])?
**A.** Dose-Dependent Effect

**Q.** What about the Activity (PC-12 [13]) of the same compound?
**A.** Dose-Dependent Effect

**Q.** What about the Activity (PC-12 [14]) of the same compound?
**A.** Active

**Q.** What about the Activity (BV-2) of the same compound?
**A.** inactive

**Q.** And the Activity [15]?
**A.** Active

**Q.** What about the Activity (PC-12 [16]) of the same compound?
**A.** Active

**Q.** What about the viability at 5 µM (PC-12 [17]) of the same compound?
**A.** 83.4%

**Q.** And the Activity (PC-12 [18])?
**A.** 0.6%

**Q.** What about the Activity [19] of the same compound?
**A.** Active

**Q.** What about the Papp at 16 h (in vitro) of the same compound?
**A.** 16 ×10⁻⁶ cm/s

**Q.** What about the Activity (PC-12 [20]) of the same compound?
**A.** Non-Toxic

**Q.** And the Activity (PC-12 [21])?
**A.** Active
